In brackets after ≈: the same amount, converted by molar mass. Entries after “also recorded” stand apart in the source; their conditions may differ.
Experiments:
Human plasma stability = type: in vitro ADME; conditions: after 18 h incubation
Method: (§1) Pre-clinical profiling of the compounds was performed at AstraZeneca R&D in Gothenburg, Sweden, applying an integrated panel of assays referred to as the DMPK Wave 1 panel.

[1] = Human plasma protein binding; type: in vitro ADME; conditions: read-out: PPB
Method: as §1

[2] = Rat hepatocytes intrinsic clearance; type: in vitro ADME; conditions: for hepatocyte CLint: read-out: Rat hep. Clint; for half-life: read-out: Rat hep. t ½
Method: as §1

[3] = LogD7.4 (DMPK Wave 1 panel); type: physicochemical; conditions: pH 7.4; average ± SD of three test occasions
Method: as §1

[4] = Human liver microsome intrinsic clearance; type: in vitro ADME; conditions: human liver microsomes; for microsomal CLint: read-out: HLM Clint; for half-life: read-out: HLM t ½
Method: as §1

[5] = Dried DMSO solubility in aqueous phosphate buffer pH 7.4; type: physicochemical; conditions: thermodynamic from solid; aqueous phosphate buffer (PBS) at pH 7.4; read-out: Sol. (dried DMSO solubility)
Method: as §1

[6] = target: T1, human aminopeptidase N (APN) (Homo sapiens, UniProt P15144); experiment: Inhibition of human aminopeptidase N overexpressed in HEK293 cells; type: biochemical; conditions: for APN IC50 (µM)/pIC50: human aminopeptidase N overexpressed in HEK293 cells
T1 construct: expressed in transfected cells; host or cells: HEK293 / HEK293T cells, membrane preparations
T1 sequence (P15144 whole entry): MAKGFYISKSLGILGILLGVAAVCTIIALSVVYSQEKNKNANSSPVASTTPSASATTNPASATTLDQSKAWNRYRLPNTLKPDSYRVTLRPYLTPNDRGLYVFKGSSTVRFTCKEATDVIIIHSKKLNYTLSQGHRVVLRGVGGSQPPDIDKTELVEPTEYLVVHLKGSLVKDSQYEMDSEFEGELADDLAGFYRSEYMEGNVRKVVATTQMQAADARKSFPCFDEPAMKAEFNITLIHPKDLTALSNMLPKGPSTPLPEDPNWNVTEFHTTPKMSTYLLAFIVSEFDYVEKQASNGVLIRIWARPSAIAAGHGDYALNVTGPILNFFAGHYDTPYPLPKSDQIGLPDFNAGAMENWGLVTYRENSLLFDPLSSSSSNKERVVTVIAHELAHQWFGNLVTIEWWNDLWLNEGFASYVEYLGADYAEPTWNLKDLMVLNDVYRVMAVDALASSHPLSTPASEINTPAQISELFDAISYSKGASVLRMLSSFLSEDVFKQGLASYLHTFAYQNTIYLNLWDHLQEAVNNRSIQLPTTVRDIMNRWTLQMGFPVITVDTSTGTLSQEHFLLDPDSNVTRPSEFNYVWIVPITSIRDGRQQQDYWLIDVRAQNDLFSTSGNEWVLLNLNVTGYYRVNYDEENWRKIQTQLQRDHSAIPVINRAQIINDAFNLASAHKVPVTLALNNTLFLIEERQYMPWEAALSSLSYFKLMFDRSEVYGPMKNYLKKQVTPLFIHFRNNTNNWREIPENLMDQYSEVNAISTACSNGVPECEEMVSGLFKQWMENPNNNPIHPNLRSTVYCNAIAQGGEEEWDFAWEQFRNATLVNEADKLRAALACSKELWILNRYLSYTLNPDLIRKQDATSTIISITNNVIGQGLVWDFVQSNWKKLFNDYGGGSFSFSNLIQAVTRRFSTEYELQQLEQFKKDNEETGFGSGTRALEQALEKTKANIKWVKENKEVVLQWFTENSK
Method: (§2) Human IRAP and APN were overexpressed, as previously described.
(§3) Membrane preparations from frozen CHO cells and HEK293T cells with overexpressed IRAP and APN were prepared and handled as previously described.
(§4) Details for the assay used to evaluate the inhibitory activity of the compounds have already been published.

human IRAP = target: T2, human IRAP (Homo sapiens, UniProt Q9UIQ6); experiment: Inhibition of human membrane-bound IRAP overexpressed in HEK293 cells (hIRAP); type: biochemical
T2 construct: expressed in transfected cells
T2 sequence (Q9UIQ6 whole entry): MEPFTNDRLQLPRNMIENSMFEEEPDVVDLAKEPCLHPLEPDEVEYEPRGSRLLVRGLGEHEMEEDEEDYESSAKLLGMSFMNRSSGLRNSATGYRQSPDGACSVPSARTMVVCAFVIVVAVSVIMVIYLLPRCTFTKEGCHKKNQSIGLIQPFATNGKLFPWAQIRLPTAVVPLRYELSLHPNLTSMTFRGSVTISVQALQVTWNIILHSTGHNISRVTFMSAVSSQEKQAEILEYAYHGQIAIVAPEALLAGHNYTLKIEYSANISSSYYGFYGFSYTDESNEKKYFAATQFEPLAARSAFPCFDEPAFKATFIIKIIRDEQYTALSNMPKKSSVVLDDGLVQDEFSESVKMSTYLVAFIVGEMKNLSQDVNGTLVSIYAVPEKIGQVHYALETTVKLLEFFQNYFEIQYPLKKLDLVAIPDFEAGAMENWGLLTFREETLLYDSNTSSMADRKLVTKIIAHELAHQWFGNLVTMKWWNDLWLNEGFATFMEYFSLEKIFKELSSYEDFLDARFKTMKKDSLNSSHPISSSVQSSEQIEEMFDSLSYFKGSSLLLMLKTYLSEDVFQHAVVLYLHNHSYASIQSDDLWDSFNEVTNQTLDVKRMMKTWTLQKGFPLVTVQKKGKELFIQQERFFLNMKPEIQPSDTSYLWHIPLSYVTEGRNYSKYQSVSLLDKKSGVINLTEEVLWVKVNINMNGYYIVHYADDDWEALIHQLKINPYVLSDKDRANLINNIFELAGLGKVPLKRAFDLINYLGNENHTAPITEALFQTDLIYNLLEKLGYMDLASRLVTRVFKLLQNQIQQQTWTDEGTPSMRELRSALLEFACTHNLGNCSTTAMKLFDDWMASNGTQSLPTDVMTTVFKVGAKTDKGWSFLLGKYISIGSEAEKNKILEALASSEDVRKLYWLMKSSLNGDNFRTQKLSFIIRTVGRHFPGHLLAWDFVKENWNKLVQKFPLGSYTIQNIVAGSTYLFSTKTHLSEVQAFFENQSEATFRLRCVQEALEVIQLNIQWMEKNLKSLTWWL
Method: as §2, §3, §4

[7] = target: T3, human recombinant soluble IRAP (sIRAP) (Homo sapiens, UniProt Q9UIQ6); experiment: Inhibition of human recombinant soluble IRAP (sIRAP); type: biochemical; conditions: human recombinant soluble enzyme
T3 construct: as well as the recombinant soluble enzyme (sIRAP)
T3 sequence (Q9UIQ6 155-1025 limits assumed): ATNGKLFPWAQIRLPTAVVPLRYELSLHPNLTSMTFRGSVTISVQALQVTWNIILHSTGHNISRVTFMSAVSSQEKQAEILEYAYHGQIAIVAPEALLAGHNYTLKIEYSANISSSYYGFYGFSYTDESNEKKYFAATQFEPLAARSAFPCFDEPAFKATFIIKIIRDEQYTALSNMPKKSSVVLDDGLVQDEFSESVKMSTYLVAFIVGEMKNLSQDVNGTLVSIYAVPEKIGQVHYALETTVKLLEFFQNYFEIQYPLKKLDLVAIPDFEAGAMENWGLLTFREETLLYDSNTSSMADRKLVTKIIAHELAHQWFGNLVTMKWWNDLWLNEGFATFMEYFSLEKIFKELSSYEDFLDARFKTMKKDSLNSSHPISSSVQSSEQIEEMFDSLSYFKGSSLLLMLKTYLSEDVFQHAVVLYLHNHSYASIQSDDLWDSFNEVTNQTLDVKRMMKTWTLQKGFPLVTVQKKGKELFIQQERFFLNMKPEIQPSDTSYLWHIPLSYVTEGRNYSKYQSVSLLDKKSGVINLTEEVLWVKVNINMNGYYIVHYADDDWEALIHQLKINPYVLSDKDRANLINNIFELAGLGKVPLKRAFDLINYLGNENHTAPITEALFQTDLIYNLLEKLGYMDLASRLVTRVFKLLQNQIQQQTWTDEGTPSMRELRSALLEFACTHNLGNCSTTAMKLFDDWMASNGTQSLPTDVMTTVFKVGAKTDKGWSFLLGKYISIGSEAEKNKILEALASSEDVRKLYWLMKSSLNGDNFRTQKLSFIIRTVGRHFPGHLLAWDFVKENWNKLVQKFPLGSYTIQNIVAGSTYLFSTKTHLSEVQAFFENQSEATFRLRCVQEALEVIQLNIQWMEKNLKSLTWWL
Excerpt: as §4

IRAP [8] = target: T4, IRAP (Cricetulus griseus, UniProt A0A8C2M8D5); experiment: Mechanism of action enzyme kinetics with variable L-Leu-pNA substrate on IRAP from CHO cell membranes; type: biochemical, Chinese hamster; conditions: Vmax decreases, Km constant
T4 sequence (A0A8C2M8D5 1-1025): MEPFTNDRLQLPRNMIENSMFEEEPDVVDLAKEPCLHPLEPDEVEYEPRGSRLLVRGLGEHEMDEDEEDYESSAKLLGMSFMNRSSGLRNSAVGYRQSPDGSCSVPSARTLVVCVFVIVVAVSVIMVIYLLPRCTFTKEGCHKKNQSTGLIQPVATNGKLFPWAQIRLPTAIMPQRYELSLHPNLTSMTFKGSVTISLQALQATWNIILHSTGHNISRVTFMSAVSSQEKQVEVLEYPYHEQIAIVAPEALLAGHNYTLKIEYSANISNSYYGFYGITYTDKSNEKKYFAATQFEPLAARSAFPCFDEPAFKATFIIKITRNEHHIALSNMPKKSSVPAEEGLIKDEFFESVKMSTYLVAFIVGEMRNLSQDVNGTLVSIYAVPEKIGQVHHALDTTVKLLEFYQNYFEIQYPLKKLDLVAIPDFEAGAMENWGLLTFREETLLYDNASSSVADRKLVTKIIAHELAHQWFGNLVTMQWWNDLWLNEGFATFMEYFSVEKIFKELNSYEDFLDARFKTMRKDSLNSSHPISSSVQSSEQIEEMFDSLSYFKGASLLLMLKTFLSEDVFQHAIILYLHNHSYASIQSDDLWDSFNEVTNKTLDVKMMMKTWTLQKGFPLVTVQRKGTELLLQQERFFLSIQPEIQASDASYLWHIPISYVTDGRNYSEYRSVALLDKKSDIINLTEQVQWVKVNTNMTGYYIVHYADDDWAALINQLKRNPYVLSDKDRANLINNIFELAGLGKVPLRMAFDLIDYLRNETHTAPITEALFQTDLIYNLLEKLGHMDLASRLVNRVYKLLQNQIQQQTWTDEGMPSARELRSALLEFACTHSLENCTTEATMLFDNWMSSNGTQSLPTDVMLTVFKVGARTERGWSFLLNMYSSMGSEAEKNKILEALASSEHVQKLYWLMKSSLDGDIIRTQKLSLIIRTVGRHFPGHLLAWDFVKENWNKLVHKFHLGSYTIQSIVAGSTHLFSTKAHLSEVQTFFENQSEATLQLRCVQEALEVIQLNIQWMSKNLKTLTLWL
Method: The design of the enzyme kinetics experiments followed that of the inhibitory experiments, except for the substrate concentrations that were variable at 0.1, 0.2, 0.3, 0.4, 0.8, 1.6 and 2.4 mM. The serial dilution of the compound stock solution was reproduced across all eight rows of a set of four 96-well plates. Four technical replicates were obtained at each substrate concentration by adding the same substrate solution to the top or bottom four rows of each 96-well plate, i.e., a total of four plates were used for this experiment, including a no-substrate control. The absorbance of these plates was then measured every 10 min to follow the enzymatic reaction over time. Data obtained in the presence of 100 µM inhibitor were used to define maximal IRAP inhibition under these assay conditions, i.e., this slope was subtracted from those obtained at lower inhibitor concentrations. Data were fitted to a model for non-competitive inhibition within GraphPad and compared with models for competitive and uncompetitive binding. The non-competitive inhibition model explains the experimental data with a probability of 99.99%, compared to 0.01% and <0.01% for competitive and uncompetitive inhibition, respectively. […]

IRAP [9] = test system: IRAP; set-up: method as in PMID 27078680; conditions: jump-dilution experiments; cited from earlier work

Row | Compound | Plasma Stab (Human plasma stability) [% compound remaining] | fraction unbound [1] | hepatocyte CLint [2] [µL/min/1e6 cells] | half-life [2] [min] | logD [3] | microsomal CLint [4] [µL/min/mg] | half-life [4] [min] | solubility [5] [µM] | APN IC50 (µM)/pIC50 [6] | IC50 (human IRAP) [nM] | IC50 [7] [nM] | mode of inhibition versus substrate (IRAP [8]) | reversibility of binding to IRAP (IRAP [9]) | impact on the activity of human APN ([6]; at concentrations up to 125 µM)
1 | COc1ccccc1-c1nc(C2CCCN2C(=S)NCc2ccccc2)n2ccccc12 (stereo not drawn) [Compound 6v, N-Benzyl-2-(1-(2-methoxyphenyl)imidazo [1,5-a]pyridin-3-yl)pyrrolidine-1-carbothioamide] | 76 ± 6 | 0.007 ± 0.001 | > 300 | < 2.3 | 3.3 ± 0.4 | > 300 | < 2.3 | 0.6 to 2 (≈ 0.266 to 0.885 µg/mL) | – | – | – | – | – | –
2 | COc1ccccc1-c1nc(CN(C)C(=O)N[C@@H](C)c2ccccc2)n2ccccc12 [Compound 6m, (S)-1-((1-(2-Methoxyphenyl)imidazo [1,5-a]pyridin-3-yl)methyl)-1-methyl-3-(1-phenylethyl)urea] | 99 ± 5 | 0.006 ± 0.001 | > 300 | < 2.3 | 2.9 ± 0.6 | > 300 | < 2.3 | 55 ± 12 (≈ 22.8 µg/mL) | – | – | – | – | – | –
3 | COc1ccccc1-c1nc(C2CCCN2C(=O)N[C@H](C)c2ccccc2)n2ccccc12 (mixture of isomers) [Compound 6b, 2-(1-(2-Methoxyphenyl)imidazo [1,5-a]pyridin-3-yl)-N-((R)-1-phenylethyl)pyrrolidine-1-carboxamide] | – | – | – | – | – | – | – | – | neither compound showed any inhibitory activity; also recorded: inactive (2) | 50000 | – | – | – | –
4 | COc1ccccc1-c1nc(C2CCCN2C(=O)N[C@@H](C)c2ccccc2)n2ccccc12 (mixture of isomers) [Compound 6a, 2-(1-(2-Methoxyphenyl)imidazo [1,5-a]pyridin-3-yl)-N-((S)-1-phenylethyl)pyrrolidine-1-carboxamide] | – | – | – | – | – | – | – | – | neither compound showed any inhibitory activity; also recorded: inactive (2) | 1300 | 1000 | non-competitive binding with the substrate | binds reversibly | no impact
